According to ChEMBL document CHEMBL1201862, “PubChem BioAssay data set” (2004):
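96-well plates; 48 h exposure; 5 concentrations. Endpoints by linear interpolation between flanking doses. Not reached: highest tested concentration assigned. GI50 marks 50% less growth.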 The source made the active and inactive calls. No stated cut-off is given here; in the data, active = GI50 up to about 1.1 µM and inactive = higher.

Key:
Assay in all cases: NCI anticancer screen, dose series, 48 h
[1] = test system: NCI/ADR-RES
[2] = test system: EKVX
[3] = test system: MDA-N
[4] = test system: BT-549
[5] = test system: SN12C
[6] = test system: MCF7
[7] = test system: OVCAR-3
[8] = test system: T47D
[9] = test system: SF-268
[10] = test system: TK-10
[11] = test system: COLO 205
[12] = test system: HCC 2998
[13] = test system: OVCAR-5
[14] = test system: OVCAR-8

Row | SMILES | GI50 [1] | GI50 [2] | GI50 [3] | GI50 [4] | GI50 [5] | GI50 [6] | GI50 [7] | GI50 [8] | GI50 [9] | GI50 [10] | GI50 [11] | GI50 [12] | GI50 [13] | GI50 [14]
1 | c1ccc2cc(-c3cc(-c4cc(-c5ccc6ccccc6c5)on4)no3)ccc2c1 | > 100 µM (inactive) | 11.7 µM (inactive) | > 100 µM (inactive) | > 100 µM (inactive) | > 100 µM (inactive) | > 100 µM (inactive) | > 100 µM (inactive) | > 100 µM (inactive) | > 100 µM (inactive) | > 100 µM (inactive) | > 100 µM (inactive) | 99.1 µM (inactive) | > 100 µM (inactive) | > 100 µM (inactive)
2 | CC(=O)OCC1OC(O[C@@H]2C[C@H]3C(C)(C)[C@@H](OC(C)=O)CC[C@]3(C)[C@H]3CC[C@]45C[C@]4(CC[C@H]5[C@@H](C)C[C@@H](O)[C@H](O)C(C)(C)F)[C@@]32C)C(O)C(O)C1O (some centres not stated) | 10.5 µM (inactive) | 1.61 µM (inactive) | 1.63 µM (inactive) | 1.72 µM (inactive) | 1.73 µM (inactive) | 12.6 µM (inactive) | 30.1 µM (inactive) | > 100 µM (inactive) | 1.47 µM (inactive) | 57.9 µM (inactive) | 1.78 µM (inactive) | 25.9 µM (inactive) | 1.47 µM (inactive) | 2.34 µM (inactive)
3 | CCN1CCC(O)(c2ccc([N+](=O)[O-])cc2)C(C(=O)c2ccc([N+](=O)[O-])cc2)C1 (configuration not stated) | 53.8 µM (inactive) | 18.9 µM (inactive) | 20.8 µM (inactive) | 16.9 µM (inactive) | 21.1 µM (inactive) | 15.4 µM (inactive) | 14.8 µM (inactive) | 23.3 µM (inactive) | 21 µM (inactive) | 17.8 µM (inactive) | 13.8 µM (inactive) | 17.7 µM (inactive) | 52.6 µM (inactive) | 30.1 µM (inactive)
4 | O=C(/C=C/NC(=O)OCc1ccccc1)OCc1ccccc1 | > 100 µM (inactive) | > 100 µM (inactive) | > 100 µM (inactive) | > 100 µM (inactive) | > 100 µM (inactive) | > 100 µM (inactive) | > 100 µM (inactive) | > 100 µM (inactive) | > 100 µM (inactive) | 86.7 µM (inactive) | > 100 µM (inactive) | > 100 µM (inactive) | > 100 µM (inactive) | > 100 µM (inactive)
5 | COc1ccc(C(=O)N2CCc3c([nH]c4ccccc34)C2C(=O)O)o1 (configuration not stated) | > 10 µM (inactive) | > 10 µM (inactive) | > 10 µM (inactive) | > 10 µM (inactive) | > 10 µM (inactive) | > 10 µM (inactive) | > 10 µM (inactive) | > 10 µM (inactive) | > 10 µM (inactive) | > 10 µM (inactive) | > 10 µM (inactive) | > 10 µM (inactive) |  | > 10 µM (inactive)
6 | Cc1nccn1S(=O)(=O)c1ccc(Cl)cc1 | 43.6 µM (inactive) | 31.3 µM (inactive) | 22.2 µM (inactive) | 74.5 µM (inactive) | 37.8 µM (inactive) | 45 µM (inactive) | 54.8 µM (inactive) | 38 µM (inactive) | 47.9 µM (inactive) | 72.8 µM (inactive) | 19.8 µM (inactive) | 29.2 µM (inactive) | 64.6 µM (inactive) | 59.2 µM (inactive)
7 | CCOc1cc2c(cc1O)/C(=N\N)C[C@@H]1[C@@H]2CC[C@]2(C)[C@@H](O)CC[C@@H]12 | 3.86 µM (inactive) | 8.28 µM (inactive) | 0.261 µM (active) | 4.26 µM (inactive) | 9.12 µM (inactive) | 2.68 µM (inactive) | 2.32 µM (inactive) | 8.32 µM (inactive) | 5.3 µM (inactive) | 22.2 µM (inactive) | 27.4 µM (inactive) | 2.07 µM (inactive) | 36.4 µM (inactive) | 7.1 µM (inactive)
